Source: patent publication US12630511B2, “Benzamide derivative, preparation method therefor, and pharmaceutical composition comprising same as active ingredient for prevention or treatment of cancer” (KOREA RESEARCH INSTITUTE OF CHEMICAL TECHNOLOGY, priority 2019, dated 2026)

Assays:
[1] = biological target: T1, EGFR L858R/T790M/C797S mutant enzyme (Homo sapiens, UniProt P00533, C797S/L858R/T790M); assay: Inhibitory capacity against EGFR L858R/T790M/C797S mutant enzyme (Cisbio HTRF); type: biochemical; details: for IC50: HTRF, 1 mM ATP, 37° C. for 2 hours, 7 concentrations
T1 construct: purchased SignalChem
Procedure: Experimental Example 1: Measurement of Inhibitory Capacity Against EGFR L858R/T790M/C797S
In order to confirm the inhibitory capacity of the compounds prepared in Examples 1 to 13 provided in one aspect of the present invention against EGFR mutation, the following experiment was performed.
Particularly, the activity of the compounds of the present invention against EGFR mutant enzyme was measured using the HTRF system of Cisbio Co. As an EGFR L858R/T790M/C797S mutant enzyme, a protein provided by SignalChem was purchased and used as an enzyme source.
The composition of the assay buffer used for the activity measurement was as follows: 50 mM Tris-HCl (pH 7.5), 100 mM NaCl, 7.5 mM MgCl2, 3 mM KCl, 0.01% Tween 20, 0.1% BSA, and 1 mM DTT. Herein, an enzyme reaction was performed using a peptide substrate labeled with ATP at the concentration of 1 mM and biotin at the concentration of 0.5 μM. The analysis of the EGFR activity inhibitory effect of the compounds was performed according to the following analytical reaction recipe. • Component 1: 4 μl of EGFR mutant enzyme • Component 2: 2 μl of compound solution • Component 3: 4 μl of ATP and biotin-labeled peptide mixture
The enzyme reaction was initiated by mixing the component 1 and the component 2 first and then adding the component 3 thereto. After reacting the mixture at 37° C. for 2 hours, 10 μl of a measurement solution consisting of streptavidin-XL665 and europium-labeled anti-phosphotyrosine antibody provided by Cisbio was added to the enzyme reaction solution, followed by reaction at room temperature for 1 hour. Finally, the ratio of the fluorescence values at 615 nm and 665 nm was calculated using Envision equipment of Perkin-Elmer to quantitatively measure the enzyme activity and confirm the inhibitory ability of the compounds. The values measured at 7 concentrations of the compound were analyzed using Prism program (version 5.01, Graphpad Software, Inc.), and the IC50 value, an index of the inhibitory ability of the compound, was calculated.

[2] = system: Ba/F3 L858R/T790M/C797S (LTC) cells; assay: Anticancer activity in BaF3 cells overexpressing EGFR L858R/T790M/C797S (CellTiter-Glo), alone or combined with cetuximab; type: cell-based; details: cells overexpressed with EGFR L858R/T790M/C797S; combined with cetuximab; 72 hours; FIG. 1 and FIG. 2
Procedure: (§1) Experimental Example 2: Evaluation of Anticancer Activity in BaF3 Cells Overexpressed with Various EGFR Mutations
(§2) In order to confirm that the compound represented by formula 1 according to the present invention acted as an allosteric inhibitor against EGFR wild-type and mutants, the inhibitory effect on EGFR wild-type and mutants in Ba/F3 cell line was evaluated. In addition, in order to evaluate the cellular activity when the compound according to the present invention was co-administered with an existing drug, the cellular activity according to the combined administration was evaluated using Cetuximab used alone or in combination with chemotherapy in metastatic colorectal cancer and metastatic squamous head and neck cancer.
(§3) Particularly, the activity of the compound of the present invention against the wild-type and mutant Ba/F3 EGFR cell lines was measured as follows using the CellTiter-Glo system of Promega. […]
(§4) BaF3 cells were aliquoted in a 96 well cell culture plate at the density of 2500 cells/50 ul per well, to which 50 ul of the compound represented by formula 1 was treated at the concentrations of 0, 0.03, 0.1, 0.3, and 1 μM. […] Finally, the ratio of the fluorescence values at 570 nm was quantitatively measured using a luminometer, and the ability of the compound to inhibit cell viability was confirmed. […]

[3] = system: Ba/F3 EGFR L858R/T790M (LT) cells; assay: Anticancer activity in BaF3 cells overexpressing EGFR L858R/T790M (CellTiter-Glo), alone or combined with cetuximab; type: cell-based; details: cells overexpressed with EGFR L858R/T790M; combined with cetuximab; 72 hours; FIG. 1 and FIG. 2
Procedure: as §1, §2, §3, §4

T1 sequence (P00533 25-1210 T790M/C797S/L858R): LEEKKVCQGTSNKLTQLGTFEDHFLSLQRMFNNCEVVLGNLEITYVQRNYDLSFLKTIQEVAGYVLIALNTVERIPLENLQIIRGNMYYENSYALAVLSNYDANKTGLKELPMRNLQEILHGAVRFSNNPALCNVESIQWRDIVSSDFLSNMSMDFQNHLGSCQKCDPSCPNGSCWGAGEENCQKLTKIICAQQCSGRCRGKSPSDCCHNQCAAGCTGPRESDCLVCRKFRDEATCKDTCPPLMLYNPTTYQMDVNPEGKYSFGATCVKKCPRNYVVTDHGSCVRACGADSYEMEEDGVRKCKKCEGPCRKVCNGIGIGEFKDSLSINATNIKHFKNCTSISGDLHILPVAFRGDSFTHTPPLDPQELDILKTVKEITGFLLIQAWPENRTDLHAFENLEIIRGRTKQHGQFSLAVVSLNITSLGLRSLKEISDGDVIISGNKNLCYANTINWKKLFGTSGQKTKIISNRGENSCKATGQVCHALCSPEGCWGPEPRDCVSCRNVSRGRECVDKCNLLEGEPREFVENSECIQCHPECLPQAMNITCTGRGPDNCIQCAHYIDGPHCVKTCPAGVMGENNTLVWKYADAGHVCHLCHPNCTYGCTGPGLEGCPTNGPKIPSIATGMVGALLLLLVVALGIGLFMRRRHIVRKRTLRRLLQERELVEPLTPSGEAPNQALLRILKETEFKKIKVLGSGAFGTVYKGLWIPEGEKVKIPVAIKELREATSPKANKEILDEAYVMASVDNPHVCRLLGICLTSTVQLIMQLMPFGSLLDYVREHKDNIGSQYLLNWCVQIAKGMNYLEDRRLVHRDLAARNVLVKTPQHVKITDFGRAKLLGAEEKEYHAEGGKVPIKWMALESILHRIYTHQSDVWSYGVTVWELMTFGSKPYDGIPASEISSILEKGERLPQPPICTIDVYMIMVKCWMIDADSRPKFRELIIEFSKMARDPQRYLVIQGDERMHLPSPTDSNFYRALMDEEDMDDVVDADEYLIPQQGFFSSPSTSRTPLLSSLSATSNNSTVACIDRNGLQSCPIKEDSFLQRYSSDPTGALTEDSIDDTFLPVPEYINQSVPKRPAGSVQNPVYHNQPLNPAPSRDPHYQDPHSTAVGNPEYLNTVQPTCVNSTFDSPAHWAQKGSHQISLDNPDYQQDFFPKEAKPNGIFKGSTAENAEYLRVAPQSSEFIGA

| SMILES | IC50 [1] [nM] | other results |
| --- | --- | --- |
| O=C(N[C@@H](c1cc2ccccc2[nH]1)c1cc(F)ccc1O)c1cccc(-c2ccc(N3CCCC3)cc2)c1 [Example 10, (R)—N-((5-fluoro-2-hydroxyphenyl)(1H-indole-2-yl)methyl)-4′-(pyrrolidine-1-yl)-[1,1′-biphenyl]-3-carboxamide] | 5900 |  |
| CN(C)C1CCN(c2ccc(-c3cccc(C(=O)N[C@@H](c4cc5ccccc5[nH]4)c4cc(F)ccc4O)c3)cc2)CC1 [Example 7, (R)-4′-(4-(dimethylamino)piperidine-1-yl)-N-((5-fluoro-2-hydroxyphenyl)(1H-indole-2-yl)methyl)-[1,1′-biphenyl]-3-carboxamide] | 160 |  |
| N[C@@H]1CCN(c2ccc(-c3cccc(C(=O)N[C@@H](c4cc5ccccc5[nH]4)c4cc(F)ccc4O)c3)cc2)C1 [Example 11, 4′-((R)-3-aminopyrrolidine-1-yl)-N—((R)-(5-fluoro-2-hydroxyphenyl)(1H-indole-2-yl)methyl)-[1,1′-biphenyl]-3-carboxamide] | 160 |  |
| N[C@H]1CCN(c2ccc(-c3cccc(C(=O)N[C@@H](c4cc5ccccc5[nH]4)c4cc(F)ccc4O)c3)cc2)C1 [Example 12, 4′-((S)-3-aminopyrrolidine-1-yl)-N—((R)-(5-fluoro-2-hydroxyphenyl)(1H-indole-2-yl)methyl)-[1,1′-biphenyl]-3-carboxamide] | 180 |  |
| CC(=O)N1CCN(c2ccc(-c3cccc(C(=O)N[C@@H](c4cc5ccccc5[nH]4)c4cc(F)ccc4O)c3)cc2)CC1 [Example 2, (R)-4′-(4-acetylpiperazine-1-yl)-N-((5-fluoro-2-hydroxyphenyl)(1H-indole-2-yl)methyl)-[1,1′-biphenyl]-3-carboxamide] | 61 |  |
| N[C@H]1CCN(c2ccc(-c3cccc(C(=O)N[C@@H](c4cc5ccccc5[nH]4)c4cc(Cl)ccc4O)c3)cc2)C1 [Example 13, 4′-((S)-3-aminopyrrolidine-1-yl)-N—((R)-(5-chloro-2-hydroxyphenyl)(1H-indole-2-yl)methyl)-[1,1′-biphenyl]-3-carboxamide] | > 10000 |  |
| CN1CCN(C2CCN(c3ccc(-c4cccc(C(=O)N[C@@H](c5cc6ccccc6[nH]5)c5cc(F)ccc5O)c4)cc3)CC2)CC1 [Example 5, (R)—N-((5-fluoro-2-hydroxyphenyl)(1H-indole-2-yl)methyl)-4′-(4-(4-methylpiperazine-1-yl)piperidine-1-yl)-[1,1′-biphenyl]-3-carboxamide] | 2600 |  |
| O=C(N[C@@H](c1cc2ccccc2[nH]1)c1cc(F)ccc1O)c1cccc(-c2ccc(N3CCC(N4CCNCC4)CC3)cc2)c1 [Example 6, (R)—N-((5-fluoro-2-hydroxyphenyl)(1H-indole-2-yl)methyl)-4′-(4-(piperazine-1-yl)piperidine-1-yl)-[1,1′-biphenyl]-3-carboxamide] | 190 |  |
| NC1CCN(c2ccc(-c3cccc(C(=O)N[C@@H](c4cc5ccccc5[nH]4)c4cc(F)ccc4O)c3)cc2)CC1 [Example 3, (R)-4′-(4-aminopiperidine-1-yl)-N-((5-fluoro-2-hydroxyphenyl)(1H-indole-2-yl)methyl)-[1,1′-biphenyl]-3-carboxamide] | 7 | anticancer activity in combination with cetuximab (cell viability relative to cetuximab only) [2]: synergistic anticancer activity; inhibitory capacity against EGFR L858R/T790M/C797S mutation (in words) ([1]; summary of Table 2): excellent inhibitory capacity; anticancer activity in combination with cetuximab (cell viability relative to cetuximab only) [3]: synergistic anticancer activity |
| CN1CCC(N2CCN(c3ccc(-c4cccc(C(=O)N[C@@H](c5cc6ccccc6[nH]5)c5cc(F)ccc5O)c4)cc3)CC2)CC1 [Example 9, (R)—N-((5-fluoro-2-hydroxyphenyl)(1H-indole-2-yl)methyl)-4′-(4-(1-methylpiperidine-4-yl)piperazine-1-yl)-[1,1′-biphenyl]-3-carboxamide] | 72 |  |
| NC1CCN(c2ccc(-c3cccc(C(=O)N[C@@H](c4cc5ccccc5[nH]4)c4cc(Cl)ccc4O)c3)cc2)CC1 [Example 4, (R)-4′-(4-aminopiperidine-1-yl)-N-((5-chloro-2-hydroxyphenyl)(1H-indole-2-yl)methyl)-[1,1′-biphenyl]-3-carboxamide] | 640 |  |
| O=C(N[C@@H](c1cc2ccccc2[nH]1)c1cc(F)ccc1O)c1cccc(-c2ccc(N3CCN(C4CCNCC4)CC3)cc2)c1 [Example 8, (R)—N-((5-fluoro-2-hydroxyphenyl)(1H-indole-2-yl)methyl)-4′-(4-(piperidine-4-yl)piperazine-1-yl)-[1,1′-biphenyl]-3-carboxamide] | 140 |  |
| O=C(N[C@@H](c1cc2ccccc2[nH]1)c1cc(F)ccc1O)c1cccc(-c2ccc(N3CCNCC3)cc2)c1 [Example 1, (R)—N-((5-fluoro-2-hydroxyphenyl)(1H-indole-2-yl)methyl)-4′-(piperazine-1-yl)-[1,1′-biphenyl]-3-carboxamide] | 46 |  |
